Source: article PMC11364775, “Ion occupancy of the selectivity filter controls opening of a cytoplasmic gate in the K2P channel TALK-2” (Nature Communications, 2024)
Entries after “also recorded” stand apart in the source; their conditions may differ. Read-outs that look alike come from different tables or passages of the source.

Tests used:
WT TALK-2 channels = target: T1, WT TALK-2 channels (Homo sapiens, UniProt Q96T54); assay: Tail current deactivation kinetics with pore blocker (inside-out patch); format: cell-based; parameters: expressed in transfected cells; host or cells: Xenopus laevis oocytes (cRNA injection), excised inside-out patches
T1 sequence (Q96T54 1-332): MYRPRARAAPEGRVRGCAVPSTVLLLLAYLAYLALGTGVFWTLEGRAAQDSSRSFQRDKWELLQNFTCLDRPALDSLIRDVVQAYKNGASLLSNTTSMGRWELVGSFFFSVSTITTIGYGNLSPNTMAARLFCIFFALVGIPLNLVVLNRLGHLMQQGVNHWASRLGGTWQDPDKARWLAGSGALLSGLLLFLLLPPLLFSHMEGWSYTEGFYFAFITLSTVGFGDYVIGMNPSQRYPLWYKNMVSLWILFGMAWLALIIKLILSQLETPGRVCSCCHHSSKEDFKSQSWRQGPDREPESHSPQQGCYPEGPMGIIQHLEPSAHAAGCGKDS
Source text: In voltage-gated K^+ (Kv) channels, the closing of the lower gate can be prevented by the binding of blockers such as tetra-pentyl-ammonium (TPenA) in the pore cavity and, thereby, causing a slowing of the deactivation kinetics which is known as the ‘foot in the door’ effect[33],[34]. To test for such a mechanism in TALK-2, we activated the channels with a voltage step to +100 mV in the presence of intracellular Rb^+ followed by a repolarization step to -80 mV (to induce tail currents) with and without the K2P channel pore blocker TPenA. […] We hypothesize, that the two gates are strongly coupled and, therefore, opening the SF gate by depolarization should also open the lower gate, which then consequently would allow blocker (like TPenA) binding within the pore cavity (Fig. 5a cartoon). Upon repolarization, however, the bound TPenA blocker obstructs closure of the lower gate and thereby, hinders the SF from closure/inactivation (gate coupling).

[1] = test system: WT TREK-1 channels (human K2P2.1); conditions: TREK-1 WT
Method: Oocytes were surgically removed from anesthetized adult females, treated with type II collagenase (Sigma-Aldrich/Merck, Germany) and manually defolliculated. 50 nl of a solution containing the K^+ channel specific cRNA was injected into Dumont stage V - VI oocytes and subsequently incubated at 17 °C in a solution containing (mM): 54 NaCl, 30 KCl, 2.4 NaHCO3, 0.82 MgSO4 x 7 H2O, 0.41 CaCl2, 0.33 Ca(NO3)2 x 4 H2O and 7.5 TRIS (pH 7.4 adjusted with NaOH/HCl) for 1–7 days before use. Electrophysiological recordings: Excised patch measurements in inside-out configuration under voltage-clamp conditions were performed at room temperature (22 – 24 °C). […] Intracellular bath solutions and compounds were applied to the cytoplasmic side of excised patches for the various K^+ channels via a gravity flow multi-barrel pipette system. Intracellular solution had the following composition (in mM): 120 KCl, 10 HEPES, 2 EGTA and 1 Pyrophosphate (pH adjusted with KOH/HCl). In other intracellular bath solutions, K^+ was replaced by Rb^+ (pH 7.4 adjusted with RbOH/HCl). Currents were recorded with an EPC10 amplifier (HEKA electronics, Germany) and sampled at 10 kHz or higher and filtered with 3 kHz (-3 dB) or higher as appropriate for sampling rate.
Recorded currents were analyzed from stable membrane patches at a voltage defined in the respective figure legend or with a voltage protocol as indicated in the respective figure. The fold activation (fold change in (tail) current amplitude) of a ligand (drug or bioactive lipid) was calculated from Eq. 1:1 Fold activationFA=Iactivated/Ibasal where Iactivated represents the stable current level in the presence of a given concentration of a respective ligand and Ibasal the measured current before ligand application. Percentage inhibition or residual currents upon blocker application for a ligand (drug or bioactive lipid) was calculated from stable currents of excised membrane patches using the following Eqs. 2 and 3:2 %inhibition=1−Iinhibited/Ibasal*100 3 Residual current=100−%inhibition where Iinhibited refers to the stable current level recorded in the presence of a given concentration of a drug or bioactive lipid and Ibasal to the measured current before ligand application. The macroscopic half-maximal concentration-inhibition relationship of a ligand was obtained using a Hill-fit for dose-response curves as depicted in Eq. 4:4 %inhibition/activation=Ibase+Imax−Ibase/1+x1/2/x^rate where base and max are the currents in the absence and presence of a respective ligand, x is the concentration of the ligand, x1/2 is the ligand concentration at which the activatory or inhibitory effect is half-maximal, rate is the Hill coefficient.

SMILES	effect of TPenA inhibition on tail current kinetics (WT TALK-2 channels; 2-APB-activated TALK-2 (1.0 mM 2-APB, 1.0 mM TPenA))	deactivation time constant τ of tail currents (WT TALK-2 channels; intracellular Rb+ with 1.0 mM TPenA, step to +100 mV, repolarization to -80 mV) [ms]	TPenA block of the tail current amplitudes (WT TALK-2 channels; intracellular Rb+, tail currents at -80 mV)	slowing of the deactivation kinetics (WT TALK-2 channels; with ~50 % TPenA block, intracellular Rb+)	Normalized currents ([1]; 0.1 µM 2-APB)	Normalized currents ([1]; 1 µM 2-APB)	Normalized currents ([1]; 10 µM 2-APB)	Normalized currents ([1]; 100 µM 2-APB)	Normalized currents ([1]; 200 µM 2-APB)	Normalized currents ([1]; 500 µM 2-APB)	Normalized currents ([1]; 1000 µM 2-APB)	Normalized currents ([1]; 2000 µM 2-APB)
CCCCC[N+](CCCCC)(CCCCC)CCCCC [TPenA, Tetra-pentyl-ammonium chloride]	no effect; also recorded: little effect	7.4 ± 0.4	~ 50%	~ 2.5 fold								
NCCOB(c1ccccc1)c1ccccc1 [2-APB, 2-aminoethoxydiphenyl borate]					0.03	0.04	0.08	0.28	0.47	0.80	0.97	0.99
